Data as given in ChEMBL document CHEMBL3526109 (Drug Metab Dispos, 2011).

Columns and labels:
[1] = tested on: Homo sapiens; assay: AUC (0 to t) in human plasma treated with [14C]brivanib alaninate at 800 mg, po administered as single dose […] by LC-MS/MS analysis; type: ADME, organism-based; conditions: in vivo
[2] = tested on: Plasma; assay: Drug level in human plasma assessed as compound formation treated with [14C]brivanib alaninate at 800 mg, po administered as single dose via gavage measured after 8 hrs by HPLC analysis; type: ADME, organism-based; conditions: in vivo
[3] = tested on: Liver microsome; assay: Drug metabolism in human liver microsomes assessed as (R)-1-(4-(4-fluoro-2-(hydroxymethyl)-1H-indol-5-yloxy)-5-methylpyrrolo[1,2-f][1,2,4]triazin-6-yloxy)propan-2-ol formation by LC-MS/MS analysis in presence of NADPH; type: ADME
[4] = tested on: Plasma; assay: Drug level in Sprague-Dawley rat plasma assessed as compound formation treated with [14C]brivanib alaninate at 100 mg/kg, po administered as single dose via gavage measured after 2 hrs by HPLC analysis; type: ADME, organism-based; conditions: in vivo
[5] = tested on: Rattus norvegicus; assay: Drug uptake in Sprague-Dawley rat plasma treated with [14C]brivanib alaninate assessed as AUC (0 to 6 hrs) of total radio activity at 100 mg/kg, po administered as single oral dose by HPLC analysis; type: ADME, organism-based; conditions: in vivo
[6] = tested on: Homo sapiens; assay: Tmax in human plasma treated with [14C]brivanib alaninate at 800 mg, po administered as single dose […] by LC-MS/MS analysis; type: ADME, organism-based; conditions: in vivo
[7] = tested on: Homo sapiens; assay: AUC (0 to 12 hrs) human plasma treated with [14C]brivanib alaninate at 800 mg, po administered as single oral dose by HPLC analysis; type: ADME, organism-based; conditions: in vivo
[8] = tested on: Cynomolgus monkey; assay: AUC (0 to t) in cynomolgus monkey plasma treated with [14C]brivanib alaninate at 10 mg/kg, po administered as single dose via gavage by LC-MS/MS analysis; type: ADME, organism-based, Macaca fascicularis; conditions: in vivo
[9] = tested on: Cynomolgus monkey; assay: Tmax in cynomolgus monkey plasma treated with [14C]brivanib alaninate at 10 mg/kg, po administered as single dose via gavage by LC-MS/MS analysis; type: ADME, organism-based, Macaca fascicularis; conditions: in vivo
[10] = tested on: Cynomolgus monkey; assay: Drug uptake in cynomolgus monkey plasma treated with [14C]brivanib alaninate assessed as AUC (0 to 12 hrs) of total radio activity at 10 mg/kg, po administered as single oral dose by HPLC analysis; type: ADME, organism-based, Macaca fascicularis; conditions: in vivo
[11] = tested on: Rattus norvegicus; assay: AUC (0 to 6 hrs) Sprague-Dawley rat plasma treated with [14C]brivanib alaninate at 100 mg/kg, po administered as single oral dose by HPLC analysis; type: ADME, organism-based; conditions: in vivo
[12] = Drug excretion in cynomolgus monkey feces treated with [14C]brivanib alaninate at 10 mg/kg, po administered as single dose via gavage by HPLC analysis; type: ADME, organism-based, Macaca fascicularis; conditions: in vivo
[13] = tested on: Plasma; assay: Drug level in Sprague-Dawley rat plasma assessed as compound formation treated with [14C]brivanib alaninate at 100 mg/kg, po administered as single dose via gavage measured after 1 hr by HPLC analysis; type: ADME, organism-based; conditions: in vivo
[14] = tested on: Plasma; assay: Drug level in cynomolgus monkey plasma assessed as compound formation treated with [14C]brivanib alaninate at 10 mg/kg, po administered as single dose via gavage measured after 4 hrs by HPLC analysis; type: ADME, organism-based, Macaca fascicularis; conditions: in vivo
[15] = Drug excretion in bile duct-cannulated rat bile treated with [14C]brivanib alaninate at 100 mg/kg, po administered as single dose via gavage by HPLC analysis; type: ADME, organism-based; conditions: in vivo
[16] = tested on: Cynomolgus monkey; assay: Cmax in cynomolgus monkey plasma treated with [14C]brivanib alaninate at 10 mg/kg, po administered as single dose via gavage by LC-MS/MS analysis; type: ADME, organism-based, Macaca fascicularis; conditions: in vivo
[17] = tested on: Plasma; assay: Drug level in cynomolgus monkey plasma assessed as compound formation treated with [14C]brivanib alaninate at 10 mg/kg, po administered as single dose via gavage measured after 2 hrs by HPLC analysis; type: ADME, organism-based, Macaca fascicularis; conditions: in vivo
[18] = tested on: Plasma; assay: Drug level in cynomolgus monkey plasma assessed as compound formation treated with [14C]brivanib alaninate at 10 mg/kg, po administered as single dose via gavage measured after 1 hr by HPLC analysis; type: ADME, organism-based, Macaca fascicularis; conditions: in vivo
[19] = tested on: Plasma; assay: Drug level in cynomolgus monkey plasma assessed as compound formation treated with [14C]brivanib alaninate at 10 mg/kg, po administered as single dose via gavage measured after 6 hrs by HPLC analysis; type: ADME, organism-based, Macaca fascicularis; conditions: in vivo
[20] = tested on: Plasma; assay: Drug level in human plasma assessed as compound formation treated with [14C]brivanib alaninate at 800 mg, po administered as single dose via gavage measured after 4 hrs by HPLC analysis; type: ADME, organism-based; conditions: in vivo
[21] = tested on: Plasma; assay: Drug level in Sprague-Dawley rat plasma assessed as compound formation treated with [14C]brivanib alaninate at 100 mg/kg, po administered as single dose via gavage measured after 6 hrs by HPLC analysis; type: ADME, organism-based; conditions: in vivo
[22] = tested on: Plasma; assay: Drug level in human plasma assessed as compound formation treated with [14C]brivanib alaninate at 800 mg, po administered as single dose via gavage measured after 12 hrs by HPLC analysis; type: ADME, organism-based; conditions: in vivo
[23] = tested on: Homo sapiens; assay: Drug uptake in human plasma treated with [14C]brivanib alaninate assessed as AUC (0 to 12 hrs) of total radio activity at 800 mg, po administered as single oral dose by HPLC analysis; type: ADME, organism-based; conditions: in vivo
[24] = tested on: Rattus norvegicus; assay: AUC (0 to t) in Sprague-Dawley rat plasma treated with [14C]brivanib alaninate at 100 mg/kg, po administered as single dose via gavage by LC-MS/MS analysis; type: ADME, organism-based; conditions: in vivo
[25] = Drug excretion in Sprague-Dawley rat urine treated with [14C]brivanib alaninate at 100 mg/kg, po administered as single dose via gavage by HPLC analysis; type: ADME, organism-based; conditions: in vivo
[26] = tested on: Plasma; assay: Drug level in cynomolgus monkey plasma assessed as compound formation treated with [14C]brivanib alaninate at 10 mg/kg, po administered as single dose via gavage measured after 12 hrs by HPLC analysis; type: ADME, organism-based, Macaca fascicularis; conditions: in vivo
[27] = Drug excretion in human urine treated with [14C]brivanib alaninate at 800 mg, po administered as single dose […] by HPLC analysis; type: ADME, organism-based; conditions: in vivo
[28] = tested on: Rattus norvegicus; assay: Cmax in Sprague-Dawley rat plasma treated with [14C]brivanib alaninate at 100 mg/kg, po administered as single dose via gavage by LC-MS/MS analysis; type: ADME, organism-based; conditions: in vivo
[29] = tested on: Plasma; assay: Drug level in human plasma assessed as compound formation treated with [14C]brivanib alaninate at 800 mg, po administered as single dose via gavage measured after 1 hr by HPLC analysis; type: ADME, organism-based; conditions: in vivo
[30] = tested on: Cynomolgus monkey; assay: AUC (0 to 12 hrs) cynomolgus monkey plasma treated with [14C]brivanib alaninate at 10 mg/kg, po administered as single oral dose by HPLC analysis; type: ADME, organism-based, Macaca fascicularis; conditions: in vivo
[31] = Drug excretion in Sprague-Dawley rat feces treated with [14C]brivanib alaninate at 100 mg/kg, po administered as single dose via gavage by HPLC analysis; type: ADME, organism-based; conditions: in vivo
[32] = Drug excretion in human feces treated with [14C]brivanib alaninate at 800 mg, po administered as single dose […] by HPLC analysis; type: ADME, organism-based; conditions: in vivo
[33] = Drug excretion in cynomolgus monkey urine treated with [14C]brivanib alaninate at 10 mg/kg, po administered as single dose via gavage by HPLC analysis; type: ADME, organism-based, Macaca fascicularis; conditions: in vivo
[34] = tested on: Homo sapiens; assay: Cmax in human plasma treated with [14C]brivanib alaninate at 800 mg, po administered as single dose […] by LC-MS/MS analysis; type: ADME, organism-based; conditions: in vivo
[35] = tested on: Rattus norvegicus; assay: Tmax in Sprague-Dawley rat plasma treated with [14C]brivanib alaninate at 100 mg/kg, po administered as single dose via gavage by LC-MS/MS analysis; type: ADME, organism-based; conditions: in vivo
[36] = Drug excretion in bile duct-cannulated cynomolgus monkey bile treated with [14C]brivanib alaninate at 10 mg/kg, po administered as single dose via gavage by HPLC analysis; type: ADME, organism-based, Macaca fascicularis; conditions: in vivo
[37] = tested on: Plasma; assay: Drug level in human plasma assessed as compound formation treated with [14C]brivanib alaninate at 800 mg, po administered as single dose via gavage measured after 2 hrs by HPLC analysis; type: ADME, organism-based; conditions: in vivo
[38] = biological target: Fibroblast growth factor receptor 1 (Homo sapiens, UniProt P11362); assay: Inhibition of human recombinant FGFR-1
[39] = biological target: Vascular endothelial growth factor receptor 2 (Homo sapiens, UniProt P35968); assay: Inhibition of human recombinant VEGFR-2
Chain of Vascular endothelial growth factor receptor 2 (P35968 whole entry): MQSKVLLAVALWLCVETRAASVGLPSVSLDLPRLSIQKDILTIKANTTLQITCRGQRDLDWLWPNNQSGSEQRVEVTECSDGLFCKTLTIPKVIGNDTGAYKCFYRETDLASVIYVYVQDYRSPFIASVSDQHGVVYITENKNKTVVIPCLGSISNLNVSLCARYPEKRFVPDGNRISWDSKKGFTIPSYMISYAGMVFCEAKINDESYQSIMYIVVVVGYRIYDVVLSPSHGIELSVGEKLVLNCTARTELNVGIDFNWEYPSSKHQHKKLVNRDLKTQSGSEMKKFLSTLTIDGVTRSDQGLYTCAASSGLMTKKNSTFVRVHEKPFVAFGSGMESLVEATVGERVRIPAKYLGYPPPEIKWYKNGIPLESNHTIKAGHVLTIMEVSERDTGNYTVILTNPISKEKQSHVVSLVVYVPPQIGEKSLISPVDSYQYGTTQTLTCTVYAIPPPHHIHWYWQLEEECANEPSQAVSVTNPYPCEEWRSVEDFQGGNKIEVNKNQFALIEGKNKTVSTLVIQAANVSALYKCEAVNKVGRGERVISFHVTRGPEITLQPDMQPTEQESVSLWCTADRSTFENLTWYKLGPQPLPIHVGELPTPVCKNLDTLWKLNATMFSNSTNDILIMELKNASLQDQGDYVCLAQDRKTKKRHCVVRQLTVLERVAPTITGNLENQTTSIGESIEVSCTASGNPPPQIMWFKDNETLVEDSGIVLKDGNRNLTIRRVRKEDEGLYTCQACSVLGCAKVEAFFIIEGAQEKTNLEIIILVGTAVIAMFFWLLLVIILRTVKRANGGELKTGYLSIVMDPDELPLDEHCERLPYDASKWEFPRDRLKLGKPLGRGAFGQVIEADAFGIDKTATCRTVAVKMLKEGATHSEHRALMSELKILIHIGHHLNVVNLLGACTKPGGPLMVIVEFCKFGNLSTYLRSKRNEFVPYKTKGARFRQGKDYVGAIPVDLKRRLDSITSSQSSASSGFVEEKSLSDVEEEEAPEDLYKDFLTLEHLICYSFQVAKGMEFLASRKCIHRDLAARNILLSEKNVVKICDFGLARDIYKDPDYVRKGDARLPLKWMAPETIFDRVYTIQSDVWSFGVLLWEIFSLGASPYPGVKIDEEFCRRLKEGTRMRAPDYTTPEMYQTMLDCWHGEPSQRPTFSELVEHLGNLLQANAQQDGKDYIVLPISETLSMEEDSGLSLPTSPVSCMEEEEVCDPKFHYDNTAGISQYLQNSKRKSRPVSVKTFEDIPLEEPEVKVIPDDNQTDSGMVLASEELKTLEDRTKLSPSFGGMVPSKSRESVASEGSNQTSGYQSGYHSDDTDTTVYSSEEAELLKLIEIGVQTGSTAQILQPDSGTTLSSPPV

Chain of Fibroblast growth factor receptor 1 (P11362 whole entry): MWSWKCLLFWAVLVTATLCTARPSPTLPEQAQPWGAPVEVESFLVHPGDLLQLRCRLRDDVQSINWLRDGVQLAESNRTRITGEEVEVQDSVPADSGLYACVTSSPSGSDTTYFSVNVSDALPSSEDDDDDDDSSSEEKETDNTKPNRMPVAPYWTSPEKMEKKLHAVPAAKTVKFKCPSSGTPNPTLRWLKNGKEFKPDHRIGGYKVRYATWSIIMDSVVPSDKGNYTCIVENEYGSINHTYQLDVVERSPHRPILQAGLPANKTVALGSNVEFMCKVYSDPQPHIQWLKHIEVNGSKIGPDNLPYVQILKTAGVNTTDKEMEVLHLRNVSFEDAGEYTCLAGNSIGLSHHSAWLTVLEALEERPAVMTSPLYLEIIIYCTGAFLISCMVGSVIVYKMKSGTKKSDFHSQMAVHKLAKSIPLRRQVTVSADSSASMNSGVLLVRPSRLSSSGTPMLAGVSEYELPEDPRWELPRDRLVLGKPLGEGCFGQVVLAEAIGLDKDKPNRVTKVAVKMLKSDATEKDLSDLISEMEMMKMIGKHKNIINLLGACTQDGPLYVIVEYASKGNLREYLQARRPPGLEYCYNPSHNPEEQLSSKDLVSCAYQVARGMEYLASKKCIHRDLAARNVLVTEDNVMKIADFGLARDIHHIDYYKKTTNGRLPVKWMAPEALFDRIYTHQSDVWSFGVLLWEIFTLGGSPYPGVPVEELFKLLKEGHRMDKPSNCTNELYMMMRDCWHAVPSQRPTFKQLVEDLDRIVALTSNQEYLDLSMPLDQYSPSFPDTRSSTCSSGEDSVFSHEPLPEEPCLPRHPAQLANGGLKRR

SMILES | Compound recovery [2] [%] | Compound recovery [4] [%] | AUC metabolite/AUC radiolabel [5] [%] | AUC [7] [ugequiv/l.hr] | AUC metabolite/AUC radiolabel [10] [%] | AUC [11] [ugequiv/l.hr] | Compound recovery [12] [%] | Compound recovery [13] [%] | Compound recovery [14] [%] | Compound recovery [15] | Compound recovery [17] [%] | Compound recovery [18] [%] | Compound recovery [19] [%] | Compound recovery [20] [%] | Compound recovery [21] [%] | Compound recovery [22] [%] | AUC metabolite/AUC radiolabel [23] [%] | Compound recovery [25] | Compound recovery [26] [%] | Compound recovery [27] | other results
Cc1cc2c(F)c(Oc3ncnn4cc(OC[C@@H](C)O)c(C)c34)ccc2[nH]1 [BRIVANIB] | 46.7 | 15.8 | 17 | 30257.7 | 61.4 | 23709.8 | 6.5 | 22 | 44.2 | metabolite_not_detected | 62.7 | 70.7 | 60.8 | 57.1 | 14.3 | 38 | 46.1 | metabolite_not_detected | 71.9 | metabolite_not_detected | AUCt [1]: 45900 ng·h/mL; Compound recovery [3]: metabolite_detected; Tmax [6]: 1 h; AUCt [8]: 49000 ng·h/mL; Tmax [9]: 2 h; Cmax [16]: 6200 ng/mL; AUCt [24]: 35500 ng·h/mL; Cmax [28]: 6400 ng/mL; Compound recovery [29]: 72.4%; AUC [30]: 42587.2 ugequiv/l.hr; Compound recovery [31]: 1.8%; Compound recovery [32]: 7.5%; Compound recovery [33]: metabolite_not_detected; Cmax [34]: 6100 ng/mL; Tmax [35]: 1 h; Compound recovery [36]: metabolite_not_detected; Compound recovery [37]: 56.9%
Cc1c(OC[C@@H](C)O)cn2ncnc(Oc3ccc4[nH]c(C(=O)O)cc4c3F)c12 | 4.9 | 5.3 | 9.2 | 4119.3 | 7.2 | 12825.3 | 22 | 5.1 | 8.6 | 0.9% | 6.4 | 3.1 | 6.9 | 11.4 | 5.3 | 4.6 | 6.3 | 0.5% | 3.5 | 0.4% | IC50 [38]: > 30 µM; IC50 [39]: > 30 µM; Compound recovery [29]: 6.8%; AUC [30]: 5006 ugequiv/l.hr; Compound recovery [31]: 12.8%; Compound recovery [32]: 7.4%; Compound recovery [33]: 1.1%; Compound recovery [36]: 10.5%; Compound recovery [37]: 7.6%
